# Experimental data reported in publication PMC5218480 (PLoS ONE, 2017).
# Tested on: MV-4-11 cells
# Experiment: Gene expression microarray analysis (Affymetrix PrimeView) and GSEA
# Type: cell-based, human
# Parameters: RFU PODN (11730768_x_at) / Fold change /veh PODN (11730768_x_at) / RFU LINC00158 (11744669_a_at) / Fold change /veh LINC00158 (11744669_a_at) / RFU DUSP10 (11751237_a_at) / Fold change /veh DUSP10 (11751237_a_at) / RFU ID3 (11757404_x_at) / Fold change /veh ID3 (11757404_x_at) / RFU PLEKHG5 (11737974_s_at) / Fold change /veh PLEKHG5 (11737974_s_at) / RFU LRRC4B (11730491_at) / Fold change /veh LRRC4B (11730491_at) / RFU GIMAP4 (11747438_a_at) / Fold change /veh GIMAP4 (11747438_a_at) / RFU KRT8 (11758183_x_at) / Fold change /veh KRT8 (11758183_x_at) / RFU CNN1 (11734310_a_at) / Fold change /veh CNN1 (11734310_a_at) / RFU VPS37D (11726825_at) / Fold change /veh VPS37D (11726825_at) / RFU C10orf10 (11716522_x_at) / Fold change /veh C10orf10 (11716522_x_at) / RFU KIR2DL2 /// KIR2DL4 /// KIR2DL5A /// KIR2DL5B /// KIR2DS1 /// KIR2DS2 /// KIR2DS3 /// KIR2DS4 /// KIR3DL3 /// KIR3DL3 /// KIR3DS1 (11738374_at) / Fold change /veh KIR2DL2 /// KIR2DL4 /// KIR2DL5A /// KIR2DL5B /// KIR2DS1 /// KIR2DS2 /// KIR2DS3 /// KIR2DS4 /// KIR3DL3 /// KIR3DL3 /// KIR3DS1 (11738374_at) / RFU C1QL1 (11718748_at) / Fold change /veh C1QL1 (11718748_at) / RFU TMPRSS4 (11747572_a_at) / Fold change /veh TMPRSS4 (11747572_a_at) / RFU HAMP (11756126_x_at) / Fold change /veh HAMP (11756126_x_at) / RFU RNFT2 (11725882_a_at) / Fold change /veh RNFT2 (11725882_a_at) / RFU NR4A2 (11747474_a_at) / Fold change /veh NR4A2 (11747474_a_at) / RFU ABCC12 (11746883_a_at) / Fold change /veh ABCC12 (11746883_a_at) / RFU TMEM136 (11760407_x_at) / Fold change /veh TMEM136 (11760407_x_at) / RFU CLDN22 /// WWC2 (11732394_at) / Fold change /veh CLDN22 /// WWC2 (11732394_at) / RFU HLA-DPB1 (11760878_x_at) / Fold change /veh HLA-DPB1 (11760878_x_at) / RFU SPINT1 (11716480_a_at) / Fold change /veh SPINT1 (11716480_a_at) / RFU GAP43 (11754022_s_at) / Fold change /veh GAP43 (11754022_s_at) / RFU A4GNT (11735810_at) / Fold change /veh A4GNT (11735810_at) / RFU PRB3 (11715151_x_at) / Fold change /veh PRB3 (11715151_x_at) / RFU TUBB4B (11761932_at) / Fold change /veh TUBB4B (11761932_at) / RFU CAPN14 (11732068_a_at) / Fold change /veh CAPN14 (11732068_a_at) / RFU TMCC2 (11721928_a_at) / Fold change /veh TMCC2 (11721928_a_at) / RFU IRGQ (11745062_a_at) / Fold change /veh IRGQ (11745062_a_at) / RFU FAM174B (11720279_a_at) / Fold change /veh FAM174B (11720279_a_at) / RFU TMPRSS4 (11748680_a_at) / Fold change /veh TMPRSS4 (11748680_a_at) / RFU FAM212B (11763350_a_at) / Fold change /veh FAM212B (11763350_a_at) / RFU PLEKHG5 (11743358_a_at) / Fold change /veh PLEKHG5 (11743358_a_at) / RFU ZSCAN30 (11745921_a_at) / Fold change /veh ZSCAN30 (11745921_a_at) / RFU CMKLR1 (11741424_a_at) / Fold change /veh CMKLR1 (11741424_a_at) / RFU LOC101060620 /// MAPK8IP1 (11723275_at) / Fold change /veh LOC101060620 /// MAPK8IP1 (11723275_at) / RFU SPTSSB (11747773_x_at) / Fold change /veh SPTSSB (11747773_x_at) / RFU PRSS12 (11739890_at) / Fold change /veh PRSS12 (11739890_at) / RFU BIN1 (11741810_x_at) / Fold change /veh BIN1 (11741810_x_at) / RFU WNT11 (11732464_a_at) / Fold change /veh WNT11 (11732464_a_at) / RFU C10orf10 (11716521_a_at) / Fold change /veh C10orf10 (11716521_a_at) / RFU C5orf56 (11738089_at) / Fold change /veh C5orf56 (11738089_at) / RFU CYB561 (11721691_x_at) / Fold change /veh CYB561 (11721691_x_at) / RFU ANKRD19P (11752326_a_at) / Fold change /veh ANKRD19P (11752326_a_at) / RFU OR2T12 /// OR2T33 /// OR2T8 (11738714_s_at) / Fold change /veh OR2T12 /// OR2T33 /// OR2T8 (11738714_s_at) / RFU VCAN (11748164_a_at) / Fold change /veh VCAN (11748164_a_at) / RFU JSRP1 (11732532_at) / Fold change /veh JSRP1 (11732532_at) / RFU KRTAP10-11 (11738290_x_at) / Fold change /veh KRTAP10-11 (11738290_x_at) / RFU MYO3A (11730013_a_at) / Fold change /veh MYO3A (11730013_a_at) / RFU EBF3 (11725865_a_at) / Fold change /veh EBF3 (11725865_a_at) / RFU CAMK2N1 (11719241_x_at) / Fold change /veh CAMK2N1 (11719241_x_at) / RFU C5orf56 (11738088_a_at) / Fold change /veh C5orf56 (11738088_a_at) / RFU OLFML3 (11715873_a_at) / Fold change /veh OLFML3 (11715873_a_at) / RFU LOC100653217 /// NTM (11731650_a_at) / Fold change /veh LOC100653217 /// NTM (11731650_a_at) / RFU MAPK11 (11762145_a_at) / Fold change /veh MAPK11 (11762145_a_at) / RFU FIZ1 (11724087_x_at) / Fold change /veh FIZ1 (11724087_x_at) / RFU OASL (11726364_x_at) / Fold change /veh OASL (11726364_x_at) / RFU SOX15 (11748057_x_at) / Fold change /veh SOX15 (11748057_x_at) / RFU CD79A (11719716_a_at) / Fold change /veh CD79A (11719716_a_at) / RFU HIST1H1D (11736915_at) / Fold change /veh HIST1H1D (11736915_at) / RFU CASKIN2 (11723855_a_at) / Fold change /veh CASKIN2 (11723855_a_at) / RFU LOC730098 (11760151_x_at) / Fold change /veh LOC730098 (11760151_x_at) / RFU OR4N2 (11742367_at) / Fold change /veh OR4N2 (11742367_at) / RFU PRRT2 (11749266_a_at) / Fold change /veh PRRT2 (11749266_a_at) / RFU SNX32 (11753110_a_at) / Fold change /veh SNX32 (11753110_a_at) / RFU CDHR5 (11726645_a_at) / Fold change /veh CDHR5 (11726645_a_at) / RFU RCAN1 (11760418_a_at) / Fold change /veh RCAN1 (11760418_a_at) / RFU FAM167A (11723789_a_at) / Fold change /veh FAM167A (11723789_a_at) / RFU FAM26E (11764081_at) / Fold change /veh FAM26E (11764081_at) / RFU ISYNA1 (11749810_s_at) / Fold change /veh ISYNA1 (11749810_s_at) / RFU ACY1 (11761880_at) / Fold change /veh ACY1 (11761880_at) / RFU 11764098_at / Fold change /veh 11764098_at / RFU SAMD14 (11745864_x_at) / Fold change /veh SAMD14 (11745864_x_at) / RFU NPB (11741838_a_at) / Fold change /veh NPB (11741838_a_at) / RFU TMPRSS6 (11731388_a_at) / Fold change /veh TMPRSS6 (11731388_a_at) / RFU KRTAP10-2 (11738614_at) / Fold change /veh KRTAP10-2 (11738614_at) / RFU ARHGAP8 /// PRR5-ARHGAP8 (11727945_x_at) / Fold change /veh ARHGAP8 /// PRR5-ARHGAP8 (11727945_x_at) / RFU KRTAP5-7 /// NADSYN1 (11734609_at) / Fold change /veh KRTAP5-7 /// NADSYN1 (11734609_at) / RFU RASL12 (11751679_a_at) / Fold change /veh RASL12 (11751679_a_at) / RFU CDKN2B (11736163_a_at) / Fold change /veh CDKN2B (11736163_a_at) / RFU PRF1 (11729649_at) / Fold change /veh PRF1 (11729649_at) / RFU, ZNF638 /// ZNF638-IT1 / Fold change vs veh, ZNF638 /// ZNF638-IT1 / RFU, PANK3 / Fold change vs veh, PANK3 / RFU, SH3YL1 / Fold change vs veh, SH3YL1 / RFU, ZEB2 / Fold change vs veh, ZEB2 / RFU, NRIP1 / Fold change vs veh, NRIP1 / RFU, PTTG1IP / Fold change vs veh, PTTG1IP / RFU, CAPN2 / Fold change vs veh, CAPN2 / RFU, MED14 / Fold change vs veh, MED14 / RFU, SNORA58 / Fold change vs veh, SNORA58 / RFU, C1orf63 / Fold change vs veh, C1orf63 / RFU, LRRFIP1 / Fold change vs veh, LRRFIP1 / RFU, NDUFAF7 / Fold change vs veh, NDUFAF7 / RFU, SLC12A2 / Fold change vs veh, SLC12A2 / RFU, IBTK / Fold change vs veh, IBTK / RFU, ESF1 / Fold change vs veh, ESF1 / Fold change vs veh, TMEM50B / RFU, TAOK1 / Fold change vs veh, TAOK1 / RFU, ACBD3 / Fold change vs veh, ACBD3 / RFU, TMA16 / Fold change vs veh, TMA16 / RFU, RWDD3 / Fold change vs veh, RWDD3 / RFU, BCAT1 / Fold change vs veh, BCAT1 / RFU, EDEM3 / Fold change vs veh, EDEM3 / RFU, TMEM33 / Fold change vs veh, TMEM33 / RFU, WDR75 / Fold change vs veh, WDR75 / RFU, AHCTF1 / Fold change vs veh, AHCTF1 / RFU, TFRC / Fold change vs veh, TFRC / RFU, ZDHHC17 / Fold change vs veh, ZDHHC17 / RFU, NOM1 / Fold change vs veh, NOM1 / RFU, ARL8B / Fold change vs veh, ARL8B / RFU, ZBTB11 / Fold change vs veh, ZBTB11 / RFU, TAMM41 / Fold change vs veh, TAMM41 / RFU, KIAA1704 /// LOC100996395 / Fold change vs veh, KIAA1704 /// LOC100996395 / RFU, ING1 / Fold change vs veh, ING1 / RFU, TRMT61B / Fold change vs veh, TRMT61B / RFU, FUBP3 / Fold change vs veh, FUBP3 / RFU, TP53 / Fold change vs veh, TP53 / RFU, TNKS2 / Fold change vs veh, TNKS2 / RFU, ZFP14 / Fold change vs veh, ZFP14 / RFU, ACTR2 / Fold change vs veh, ACTR2 / RFU, PPP3R1 / Fold change vs veh, PPP3R1 / RFU, PIK3R1 / Fold change vs veh, PIK3R1 / RFU, HNRNPA1 / Fold change vs veh, HNRNPA1 / RFU, RNF170 / Fold change vs veh, RNF170 / RFU, ZNF28 / Fold change vs veh, ZNF28 / RFU, RNGTT / Fold change vs veh, RNGTT / RFU, OGT / Fold change vs veh, OGT / RFU, BRD1 / Fold change vs veh, BRD1 / RFU, MARS / Fold change vs veh, MARS / RFU, ZNF655 / Fold change vs veh, ZNF655 / RFU, FAHD1 / Fold change vs veh, FAHD1 / RFU, BDP1 / Fold change vs veh, BDP1 / RFU, LRRCC1 / Fold change vs veh, LRRCC1 / RFU, ARID1A / Fold change vs veh, ARID1A / RFU, ZNF146 / Fold change vs veh, ZNF146 / RFU, ZNF330 / Fold change vs veh, ZNF330 / RFU, GPN3 / Fold change vs veh, GPN3 / RFU, C9orf123 / Fold change vs veh, C9orf123 / RFU, N4BP2L2 / Fold change vs veh, N4BP2L2 / RFU, ARFIP1 / Fold change vs veh, ARFIP1 / RFU, FAM179B / Fold change vs veh, FAM179B / RFU, BCL10 / Fold change vs veh, BCL10 / RFU, UHRF1BP1L / Fold change vs veh, UHRF1BP1L / RFU, BET1 / Fold change vs veh, BET1 / RFU, CNOT2 / Fold change vs veh, CNOT2 / RFU, ZNF268 / Fold change vs veh, ZNF268 / Fold change vs veh, ZNF507 / RFU, DGCR2 / Fold change vs veh, DGCR2 / RFU, WDSUB1 / Fold change vs veh, WDSUB1 / Fold change vs veh, HSP90B1 /// MIR3652 / RFU, ADSS / Fold change vs veh, ADSS / RFU, GK / Fold change vs veh, GK / RFU, ZNF148 / Fold change vs veh, ZNF148 / RFU, TAF9 / Fold change vs veh, TAF9 / RFU, SLC1A5 / Fold change vs veh, SLC1A5 / RFU, SLMO2 / Fold change vs veh, SLMO2 / RFU, ABCC4 / Fold change vs veh, ABCC4 / RFU, LOC101060439 /// RAP1B / Fold change vs veh, LOC101060439 /// RAP1B / RFU, RFX7 / Fold change vs veh, RFX7 / RFU, GTPBP10 / Fold change vs veh, GTPBP10 / RFU, CNEP1R1 / Fold change vs veh, CNEP1R1 / RFU, BIVM-ERCC5 /// ERCC5 / Fold change vs veh, BIVM-ERCC5 /// ERCC5 / RFU, ILF3 / Fold change vs veh, ILF3 / RFU 11762660_at / Fold change /veh 11762660_at / RFU VCAN (11757783_s_at) / Fold change /veh VCAN (11757783_s_at) / RFU DDX43 (11728927_at) / Fold change /veh DDX43 (11728927_at) / RFU KRT8 (11758188_x_at) / Fold change /veh KRT8 (11758188_x_at) / RFU NKD1 (11759106_at) / Fold change /veh NKD1 (11759106_at) / RFU SRD5A1 (11742802_a_at) / Fold change /veh SRD5A1 (11742802_a_at) / RFU TPSAB1 /// TPSB2 (11721975_s_at) / Fold change /veh TPSAB1 /// TPSB2 (11721975_s_at) / RFU GSTM3 (11746129_a_at) / Fold change /veh GSTM3 (11746129_a_at) / RFU IL23R (11737362_x_at) / Fold change /veh IL23R (11737362_x_at) / RFU TMEM51 (11727254_a_at) / Fold change /veh TMEM51 (11727254_a_at) / RFU PIWIL2 (11732686_x_at) / Fold change /veh PIWIL2 (11732686_x_at) / RFU ORM1 (11744905_x_at) / Fold change /veh ORM1 (11744905_x_at) / RFU CCDC152 (11743942_at) / Fold change /veh CCDC152 (11743942_at) / RFU ECM1 (11717891_a_at) / Fold change /veh ECM1 (11717891_a_at) / RFU IL23R (11748794_a_at) / Fold change /veh IL23R (11748794_a_at) / RFU TNFAIP8L3 (11732012_x_at) / Fold change /veh TNFAIP8L3 (11732012_x_at) / RFU MBOAT4 (11741988_at) / Fold change /veh MBOAT4 (11741988_at) / RFU 11764193_at / Fold change /veh 11764193_at / RFU TMEM53 (11763286_at) / Fold change /veh TMEM53 (11763286_at) / RFU MAGEB2 (11727129_at) / Fold change /veh MAGEB2 (11727129_at) / RFU TMEM200A (11744735_a_at) / Fold change /veh TMEM200A (11744735_a_at) / RFU CCDC152 (11751479_a_at) / Fold change /veh CCDC152 (11751479_a_at) / RFU FAM211A (11726209_a_at) / Fold change /veh FAM211A (11726209_a_at) / RFU RGS16 (11746705_a_at) / Fold change /veh RGS16 (11746705_a_at) / RFU VCAN (11755009_s_at) / Fold change /veh VCAN (11755009_s_at) / RFU RHOB (11743442_s_at) / Fold change /veh RHOB (11743442_s_at) / RFU RGS16 (11720943_a_at) / Fold change /veh RGS16 (11720943_a_at) / RFU RGS16 (11720944_at) / Fold change /veh RGS16 (11720944_at) / RFU, VPS4B / Fold change vs veh, VPS4B / RFU, CREB1 / Fold change vs veh, CREB1 / RFU, DNAJC13 / Fold change vs veh, DNAJC13 / RFU, GNAQ / Fold change vs veh, GNAQ / RFU, CDK5R1 / Fold change vs veh, CDK5R1 / RFU, ZRANB3 / Fold change vs veh, ZRANB3 / RFU, CUL4A / Fold change vs veh, CUL4A / RFU, CCNY / Fold change vs veh, CCNY / RFU, UFL1 / Fold change vs veh, UFL1 / RFU, COG3 / Fold change vs veh, COG3 / RFU, DIAPH2 / Fold change vs veh, DIAPH2 / RFU, SKA2 / Fold change vs veh, SKA2 / RFU, AFF3 / Fold change vs veh, AFF3 / RFU, LMF1 / Fold change vs veh, LMF1 / RFU, IPO11 / Fold change vs veh, IPO11 / RFU, DFFB / Fold change vs veh, DFFB / RFU, FOXP1 / Fold change vs veh, FOXP1 / RFU, CARD8 / Fold change vs veh, CARD8 / RFU, STRN3 / Fold change vs veh, STRN3 / RFU, ADK / Fold change vs veh, ADK / RFU, RASSF2 / Fold change vs veh, RASSF2 / RFU, WIPF1 / Fold change vs veh, WIPF1 / RFU, LARP1B / Fold change vs veh, LARP1B / RFU, RASA1 / Fold change vs veh, RASA1 / RFU, RB1 / Fold change vs veh, RB1 / RFU, PPFIA1 / Fold change vs veh, PPFIA1 / RFU, MAT2A / Fold change vs veh, MAT2A / RFU, CCT5 / Fold change vs veh, CCT5 / RFU, WDR92 / Fold change vs veh, WDR92 / RFU, CUX1 / Fold change vs veh, CUX1 / RFU, TTC7A / Fold change vs veh, TTC7A / RFU, TMEM135 / Fold change vs veh, TMEM135 / RFU, DEPTOR / Fold change vs veh, DEPTOR / RFU, CPM / Fold change vs veh, CPM / RFU, DNAJB6 / Fold change vs veh, DNAJB6 / RFU, CACNA2D3 / Fold change vs veh, CACNA2D3 / RFU, DTX4 / Fold change vs veh, DTX4 / RFU, TFCP2 / Fold change vs veh, TFCP2 / RFU, GMCL1 /// GMCL1P1 / Fold change vs veh, GMCL1 /// GMCL1P1 / RFU, AEBP2 / Fold change vs veh, AEBP2 / RFU, SNHG1 /// SNORD22 /// SNORD25 /// SNORD26 /// SNORD27 /// SNORD28 /// SNORD29 /// SNORD31 / Fold change vs veh, SNHG1 /// SNORD22 /// SNORD25 /// SNORD26 /// SNORD27 /// SNORD28 /// SNORD29 /// SNORD31 / Fold change (Aza/veh), C12orf56 (ProbeSet 11735607_a_at) / Fold change (ACY-1035/veh), C12orf56 (ProbeSet 11735607_a_at) / Fold change (Aza/veh), FGFR1OP (ProbeSet 11751329_s_at) / Fold change (ACY-1035/veh), FGFR1OP (ProbeSet 11751329_s_at) / Fold change (Aza/veh), VPS36 (ProbeSet 11739960_a_at) / Fold change (ACY-1035/veh), VPS36 (ProbeSet 11739960_a_at) / RFU SYPL1 (11715823_x_at) / Fold change /veh SYPL1 (11715823_x_at) / RFU IGFBP7 (11715501_s_at) / Fold change /veh IGFBP7 (11715501_s_at) / RFU REEP3 (11722064_at) / Fold change /veh REEP3 (11722064_at) / RFU IGLL1 (11728026_x_at) / Fold change /veh IGLL1 (11728026_x_at): dose or concentration left out as unconfirmed
# Conditions: ProbeSet 11720270_a_at; LIST B
compound,measurement,value
Nc1ccc(-c2cccs2)cc1NC(=O)c1ccc2c(c1)cc(C1CC1)n2CCN1CCOCC1 [ACY-1035],"RFU, IBTK",373.26 RFU
